Numbers after ± are expanded uncertainties.
Tests used:
[1] = molar heat capacity at constant pressure; details: 101.3 kPa, Liquid, Small sample (50 mg) DSC
[2] = molar heat capacity at constant pressure; xn = mol fraction of the nth substance listed; details: 101.3 kPa, Liquid, Small sample (50 mg) DSC, x2 = 0

CNCCN(C)C [N,N,N'-trimethylethylenediamine]
[1]
Details	molar heat capacity at constant pressure [J/K/mol]
303.2 K	258.3 ± 8.6
308.2 K	260 ± 8.6
313.2 K	262.7 ± 8.7
318.2 K	265.3 ± 8.8
323.2 K	269.2 ± 8.9
328.2 K	272.7 ± 9
333.2 K	276 ± 9.2
338.2 K	278.9 ± 9.3
343.2 K	281.3 ± 9.3
348.2 K	283.4 ± 9.4
353.2 K	286.6 ± 9.5

O [water] + CNCCN(C)C
[2]
Details	molar heat capacity at constant pressure [J/K/mol]
303.2 K	75.26 ± 2.5
308.2 K	75.27 ± 2.5
313.2 K	75.29 ± 2.5
318.2 K	75.31 ± 2.5
323.2 K	75.29 ± 2.5
328.2 K	75.32 ± 2.5
333.2 K	75.41 ± 2.5
338.2 K	75.44 ± 2.5
343.2 K	75.48 ± 2.5
348.2 K	75.55 ± 2.5
353.2 K	75.78 ± 2.5

Cc1ccccc1 [toluene]
[1]
Details	molar heat capacity at constant pressure [J/K/mol]
303.2 K	159.1 ± 5.3
308.2 K	160.4 ± 5.3
313.2 K	161.6 ± 5.4
318.2 K	163 ± 5.4
323.2 K	164.1 ± 5.4
328.2 K	165.5 ± 5.5
333.2 K	167 ± 5.5
338.2 K	168.6 ± 5.6
343.2 K	170.4 ± 5.7
348.2 K	172.8 ± 5.7
353.2 K	175.1 ± 5.8

O [water] + NCCN1CCNCC1
[2]
Details	molar heat capacity at constant pressure [J/K/mol]
303.2 K	75.26 ± 2.5
308.2 K	75.27 ± 2.5
313.2 K	75.29 ± 2.5
318.2 K	75.31 ± 2.5
323.2 K	75.29 ± 2.5
328.2 K	75.32 ± 2.5
333.2 K	75.41 ± 2.5
338.2 K	75.44 ± 2.5
343.2 K	75.48 ± 2.5
348.2 K	75.55 ± 2.5
353.2 K	75.78 ± 2.5

NCCN1CCNCC1 [N-(β-aminoethyl)piperazine)]
[1]
Details	molar heat capacity at constant pressure [J/K/mol]
303.2 K	289.7 ± 9.6
308.2 K	290.8 ± 9.6
313.2 K	293.1 ± 9.7
318.2 K	294.7 ± 9.8
323.2 K	296.9 ± 9.8
328.2 K	298.5 ± 9.9
333.2 K	300.7 ± 10
338.2 K	302.2 ± 10
343.2 K	303.3 ± 10
348.2 K	303.6 ± 10
353.2 K	304.6 ± 10

O [water]
[1]
Details	molar heat capacity at constant pressure [J/K/mol]
303.2 K	75.26 ± 2.5
308.2 K	75.27 ± 2.5
313.2 K	75.29 ± 2.5
318.2 K	75.31 ± 2.5
323.2 K	75.29 ± 2.5
328.2 K	75.32 ± 2.5
333.2 K	75.41 ± 2.5
338.2 K	75.44 ± 2.5
343.2 K	75.48 ± 2.5
348.2 K	75.55 ± 2.5
353.2 K	75.78 ± 2.5

— the NIST ThermoML archive (doi:10.1016/j.jct.2016.08.006)
